Values of other authors as cited in US20230000960A1, “NEOANTIGEN COMPOSITIONS AND USES THEREOF” (BIONTECH US INC., priority 2019, published 2023).

System: ovarian carcinoma patients
Conditions: poly-ICLC in combination with a NYESO-1 peptide vaccine (in addition to Montanide); phase 1 study

## poly-ICLC
  patients showing induction of CD4+ and CD8+ T cell, as well as antibody responses to the peptide: > 90%
